US10758534B2 (Vertex Pharmaceuticals Incorporated, priority 2014, dated 2020)

Target: T1, F508del (Homo sapiens, UniProt P13569, DEL508-508)
T1 construct: expressed in transfected cells
Test: Protocol 2: FRET membrane potential optical assay (VIPR), identification of correction compounds
Format: cell-based
Conditions: F508del CFTR modulator activity; compounds of Table 1; read-out: EC30
Procedure, shortened: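 NIH3T3 mouse fibroblasts stably expressing F508del were treated with test compound for 16 hrs at 37° C. in serum-free medium; 27° C. incubation served as positive control. F508del was activated with 10 μM forskolin plus 20 μM genistein in Cl^−-free medium, and Cl^− efflux-driven depolarization was read by DiSBAC2(3)/CC2-DMPE FRET.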

T1 sequence (P13569 with tags, fused parts or gaps DEL508-508): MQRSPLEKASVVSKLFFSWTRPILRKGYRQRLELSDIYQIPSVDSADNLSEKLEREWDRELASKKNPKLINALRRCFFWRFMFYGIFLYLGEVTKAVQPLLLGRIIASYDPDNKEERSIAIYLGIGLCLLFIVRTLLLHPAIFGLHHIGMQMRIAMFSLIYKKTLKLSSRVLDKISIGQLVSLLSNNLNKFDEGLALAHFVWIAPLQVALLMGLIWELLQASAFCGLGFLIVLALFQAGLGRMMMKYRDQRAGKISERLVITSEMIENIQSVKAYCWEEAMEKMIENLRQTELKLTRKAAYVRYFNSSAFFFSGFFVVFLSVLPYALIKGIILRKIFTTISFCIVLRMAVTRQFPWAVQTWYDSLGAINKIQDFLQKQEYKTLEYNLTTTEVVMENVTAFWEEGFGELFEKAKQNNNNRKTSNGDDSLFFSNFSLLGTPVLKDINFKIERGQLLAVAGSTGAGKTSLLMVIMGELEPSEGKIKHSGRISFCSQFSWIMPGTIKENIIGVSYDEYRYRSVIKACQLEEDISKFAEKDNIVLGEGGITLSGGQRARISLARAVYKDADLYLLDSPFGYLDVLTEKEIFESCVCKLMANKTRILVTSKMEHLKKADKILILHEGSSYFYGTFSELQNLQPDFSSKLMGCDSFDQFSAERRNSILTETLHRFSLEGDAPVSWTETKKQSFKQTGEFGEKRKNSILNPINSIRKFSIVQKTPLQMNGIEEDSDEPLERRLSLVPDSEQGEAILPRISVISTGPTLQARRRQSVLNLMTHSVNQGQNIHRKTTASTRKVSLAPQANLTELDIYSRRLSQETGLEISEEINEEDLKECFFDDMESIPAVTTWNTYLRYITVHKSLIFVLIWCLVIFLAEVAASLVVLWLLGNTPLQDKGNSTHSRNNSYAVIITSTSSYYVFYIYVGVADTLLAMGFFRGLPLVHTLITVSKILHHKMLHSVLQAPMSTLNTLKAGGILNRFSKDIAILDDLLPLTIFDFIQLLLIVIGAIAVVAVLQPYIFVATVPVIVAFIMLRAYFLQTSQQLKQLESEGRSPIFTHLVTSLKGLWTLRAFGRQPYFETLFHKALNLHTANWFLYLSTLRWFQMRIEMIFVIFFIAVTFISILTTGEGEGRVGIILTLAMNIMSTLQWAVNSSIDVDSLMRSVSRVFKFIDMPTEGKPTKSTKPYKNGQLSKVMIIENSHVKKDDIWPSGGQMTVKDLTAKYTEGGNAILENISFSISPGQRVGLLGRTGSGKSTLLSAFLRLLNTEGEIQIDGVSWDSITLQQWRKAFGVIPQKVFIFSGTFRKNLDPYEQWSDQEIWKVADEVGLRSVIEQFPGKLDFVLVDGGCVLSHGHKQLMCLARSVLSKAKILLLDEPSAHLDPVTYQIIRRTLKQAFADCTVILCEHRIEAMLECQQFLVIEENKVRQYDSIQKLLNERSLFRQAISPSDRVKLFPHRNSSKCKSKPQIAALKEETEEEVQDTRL

Structure (SMILES): CC1CN(c2ncccc2C(=O)NS(=O)(=O)c2cccc(Oc3ccc(-n4ccnc4)cc3)n2)C(C)(C)C1 (stereo not drawn) [Compound 2441, N—[[6-(4-imidazol-1-ylphenoxy)-2-pyridyl]sulfonyl]-2-(2,2,4-trimethylpyrrolidin-1-yl)pyridine-3-carboxamide]
- EC30: 3000 to 10000 nM

Structure (SMILES): COC(=O)C1CCN(c2cccc(S(=O)(=O)NC(=O)c3cccnc3N3CC(C)CC3(C)C)n2)CC1 (stereo not drawn) [Compound 2442, methyl 1-[6-[[2-(2,2,4-trimethylpyrrolidin-1-yl)pyridine-3-carbonyl]sulfamoyl]-2-pyridyl]piperidine-4-carboxylate]
- EC30: 3000 to 10000 nM

Structure (SMILES): CC1CN(c2ncccc2C(=O)NS(=O)(=O)c2cccc(Oc3cccc(N(C)C)c3)n2)C(C)(C)C1 (stereo not drawn) [Compound 2443, N—[[6-[3-(dimethylamino)phenoxy]-2-pyridyl]sulfonyl]-2-(2,2,4-trimethylpyrrolidin-1-yl)pyridine-3-carboxamide]
- EC30: < 3000 nM

Structure (SMILES): COc1ncc(-c2ccc(C(=O)NS(=O)(=O)c3ccc[nH]c3=O)c(N3C[C@@H](C)CC3(C)C)n2)cc1F [Compound 2444, 6-(5-fluoro-6-methoxy-3-pyridyl)-N-[(2-oxo-1H-pyridin-3-yl)sulfonyl]-2-[(4S)-2,2,4-trimethylpyrrolidin-1-yl]pyridine-3-carboxamide]
- EC30: 3000 to 10000 nM

Structure (SMILES): C[C@@H]1CN(c2nc(-c3ccccc3)ccc2C(=O)NS(=O)(=O)c2ccc[nH]c2=O)C(C)(C)C1 [Compound 2445, N-[(2-oxo-1H-pyridin-3-yl)sulfonyl]-6-phenyl-2-[(4S)-2,2,4-trimethylpyrrolidin-1-yl]pyridine-3-carboxamide]
- EC30: < 3000 nM

Structure (SMILES): C[C@@H]1CN(c2nc(-c3cccc(F)c3O)ccc2C(=O)NS(=O)(=O)c2cccnc2N)C(C)(C)C1 [Compound 2446, N-[(2-amino-3-pyridyl)sulfonyl]-6-(3-fluoro-2-hydroxy-phenyl)-2-[(4S)-2,2,4-trimethylpyrrolidin-1-yl]pyridine-3-carboxamide]
- EC30: < 3000 nM

Structure (SMILES): C[C@@H]1CN(c2nc(-c3ccc(F)cc3F)ccc2C(=O)NS(=O)(=O)c2cccnc2N)C(C)(C)C1 [Compound 2447, N-[(2-amino-3-pyridyl)sulfonyl]-6-(2,4-difluorophenyl)-2-[(4S)-2,2,4-trimethylpyrrolidin-1-yl]pyridine-3-carboxamide]
- EC30: < 3000 nM

Structure (SMILES): CC(C)COc1ccccc1-c1ccc(C(=O)NS(=O)(=O)c2cccnc2N)c(N2C[C@@H](C)CC2(C)C)n1 [Compound 2448, N-[(2-amino-3-pyridyl)sulfonyl]-6-(2-isobutoxyphenyl)-2-[(4S)-2,2,4-trimethylpyrrolidin-1-yl]pyridine-3-carboxamide]
- EC30: < 3000 nM

Structure (SMILES): CC1CN(c2ncccc2C(=O)NS(=O)(=O)c2cccc(Nc3cnc4ccccc4c3)n2)C(C)(C)C1 (stereo not drawn) [Compound 2449, N—[[6-(3-quinolylamino)-2-pyridyl]sulfonyl]-2-(2,2,4-trimethylpyrrolidin-1-yl)pyridine-3-carboxamide]
- EC30: < 3000 nM

Structure (SMILES): COc1ccc(-c2ccc(C(=O)NS(=O)(=O)c3cccnc3N)c(N3C[C@@H](C)CC3(C)C)n2)c(C)c1C [Compound 2450, N-[(2-amino-3-pyridyl)sulfonyl]-6-(4-methoxy-2,3-dimethyl-phenyl)-2-[(4S)-2,2,4-trimethylpyrrolidin-1-yl]pyridine-3-carboxamide]
- EC30: < 3000 nM

Structure (SMILES): CC1CN(c2ncccc2C(=O)NS(=O)(=O)c2cccc(OCCC3CCNCC3)n2)C(C)(C)C1 (stereo not drawn) [Compound 2452, N—[[6-[2-(4-piperidyl)ethoxy]-2-pyridyl]sulfonyl]-2-(2,2,4-trimethylpyrrolidin-1-yl)pyridine-3-carboxamide]
- EC30: < 3000 nM

Structure (SMILES): CC1CN(c2ncccc2C(=O)NS(=O)(=O)c2cccc(N3CCC(F)CC3)n2)C(C)(C)C1 (stereo not drawn) [Compound 2453, N—[[6-(4-fluoro-1-piperidyl)-2-pyridyl]sulfonyl]-2-(2,2,4-trimethylpyrrolidin-1-yl)pyridine-3-carboxamide]
- EC30: < 3000 nM

Structure (SMILES): COc1ncccc1-c1ccc(C(=O)NS(=O)(=O)c2ccc[nH]c2=O)c(N2C[C@@H](C)CC2(C)C)n1 [Compound 2454, 6-(2-methoxy-3-pyridyl)-N-[(2-oxo-1H-pyridin-3-yl)sulfonyl]-2-[(4S)-2,2,4-trimethylpyrrolidin-1-yl]pyridine-3-carboxamide]
- EC30: 3000 to 10000 nM

Structure (SMILES): Cc1cc(-c2ccc(C(=O)NS(=O)(=O)c3ccc[nH]c3=O)c(N3C[C@@H](C)CC3(C)C)n2)ccc1F [Compound 2456, 6-(4-fluoro-3-methyl-phenyl)-N-[(2-oxo-1H-pyridin-3-yl)sulfonyl]-2-[(4S)-2,2,4-trimethylpyrrolidin-1-yl]pyridine-3-carboxamide]
- EC30: < 3000 nM

Structure (SMILES): COc1c(F)cc(-c2ccc(C(=O)NS(=O)(=O)c3cccnc3N)c(N3C[C@@H](C)CC3(C)C)n2)cc1F [Compound 2457, N-[(2-amino-3-pyridyl)sulfonyl]-6-(3,5-difluoro-4-methoxy-phenyl)-2-[(4S)-2,2,4-trimethylpyrrolidin-1-yl]pyridine-3-carboxamide]
- EC30: < 3000 nM

Structure (SMILES): CC[C@H](C)COc1ccn(-c2ccc(C(=O)NS(=O)(=O)c3cccnc3N)c(N3C[C@@H](C)CC3(C)C)n2)n1 [Compound 2458, N-[(2-amino-3-pyridyl)sulfonyl]-6-[3-[(2S)-2-methylbutoxy]pyrazol-1-yl]-2-[(4S)-2,2,4-trimethylpyrrolidin-1-yl]pyridine-3-carboxamide]
- EC30: < 3000 nM

Structure (SMILES): CCOc1cc(-c2ccc(C(=O)NS(=O)(=O)c3ccc[nH]c3=O)c(N3C[C@@H](C)CC3(C)C)n2)ccc1F [Compound 2459, 6-(3-ethoxy-4-fluoro-phenyl)-N-[(2-oxo-1H-pyridin-3-yl)sulfonyl]-2-[(4S)-2,2,4-trimethylpyrrolidin-1-yl]pyridine-3-carboxamide]
- EC30: < 3000 nM

Structure (SMILES): Cc1ccc(Oc2cccc(S(=O)(=O)NC(=O)c3cccnc3N3CC(C)CC3(C)C)n2)cc1 (stereo not drawn) [Compound 2460, N—[[6-(4-methylphenoxy)-2-pyridyl]sulfonyl]-2-(2,2,4-trimethylpyrrolidin-1-yl)pyridine-3-carboxamide]
- EC30: < 3000 nM

Structure (SMILES): CC1CN(c2ncccc2C(=O)NS(=O)(=O)c2cccc(Oc3cccc(Cl)c3)n2)C(C)(C)C1 (stereo not drawn) [Compound 2461, N—[[6-(3-chlorophenoxy)-2-pyridyl]sulfonyl]-2-(2,2,4-trimethylpyrrolidin-1-yl)pyridine-3-carboxamide]
- EC30: < 3000 nM

Structure (SMILES): CC1CN(c2ncccc2C(=O)NS(=O)(=O)c2cccc(OCc3cc(F)cc(F)c3)n2)C(C)(C)C1 (stereo not drawn) [Compound 2462, N—[[6-[(3,5-difluorophenyl)methoxy]-2-pyridyl]sulfonyl]-2-(2,2,4-trimethylpyrrolidin-1-yl)pyridine-3-carboxamide]
- EC30: < 3000 nM

Structure (SMILES): CC1CN(c2ncc(-c3ccc(C(C)(C)C)cc3)cc2C(=O)NS(=O)(=O)c2cccc(N)n2)C(C)(C)C1 (stereo not drawn) [Compound 2463, N-[(6-amino-2-pyridyl)sulfonyl]-5-(4-tert-butylpenyl)-2-(2,2,4-trimethylpyrrolidin-1-yl)pyridine-3-carboxamide]
- EC30: < 3000 nM

Structure (SMILES): CC1CN(c2ncccc2C(=O)NS(=O)(=O)c2cccc(N3CCOCC3)n2)C(C)(C)C1 (stereo not drawn) [Compound 2464, N-[(6-morpholino-2-pyridyl)sulfonyl]-2-(2,2,4-trimethylpyrrolidin-1-yl)pyridine-3-carboxamide]
- EC30: 3000 to 10000 nM

Structure (SMILES): COc1cccc(CCNc2cccc(S(=O)(=O)NC(=O)c3cccnc3N3CC(C)CC3(C)C)n2)c1 (stereo not drawn) [Compound 2465, N—[[6-[2-(3-methoxyphenyl)ethylamino]-2-pyridyl]sulfonyl]-2-(2,2,4-trimethylpyrrolidin-1-yl)pyridine-3-carboxamide]
- EC30: < 3000 nM

Structure (SMILES): CC1CN(c2ncccc2C(=O)NS(=O)(=O)c2cccc(Nc3ccc(C(F)(F)F)nc3)n2)C(C)(C)C1 (stereo not drawn) [Compound 2466, N—[[6-[[6-(trifluoromethyl)-3-pyridyl]amino]-2-pyridyl]sulfonyl]-2-(2,2,4-trimethylpyrrolidin-1-yl)pyridine-3-carboxamide]
- EC30: < 3000 nM

Structure (SMILES): CC(C)Cc1ccc(C(=O)NS(=O)(=O)c2ccc[nH]c2=O)c(N2C[C@@H](C)CC2(C)C)n1 [Compound 2467, 6-isobutyl-N-[(2-oxo-1H-pyridin-3-yl)sulfonyl]-2-[(4S)-2,2,4-trimethylpyrrolidin-1-yl]pyridine-3-carboxamide]
- EC30: < 3000 nM

Structure (SMILES): C[C@@H]1CN(c2nc(-c3ccc4cc(O)ccc4c3)ccc2C(=O)NS(=O)(=O)c2cccnc2N)C(C)(C)C1 [Compound 2468, N-[(2-amino-3-pyridyl)sulfonyl]-6-(6-hydroxy-2-naphthyl)-2-[(4S)-2,2,4-trimethylpyrrolidin-1-yl]pyridine-3-carboxamide]
- EC30: < 3000 nM

Structure (SMILES): COc1ccc(-c2ccc(C(=O)NS(=O)(=O)c3ccc[nH]c3=O)c(N3C[C@@H](C)CC3(C)C)n2)c(C)c1 [Compound 2469, 6-(4-methoxy-2-methyl-phenyl)-N-[(2-oxo-1H-pyridin-3-yl)sulfonyl]-2-[(4S)-2,2,4-trimethylpyrrolidin-1-yl]pyridine-3-carboxamide]
- EC30: 3000 to 10000 nM

Structure (SMILES): CC1CN(c2ncccc2C(=O)NS(=O)(=O)c2cccc(O[C@H](C)Cc3ccccc3)n2)C(C)(C)C1 (stereo partly drawn) [Compound 2470, N—[[6-[(1R)-1-methyl-2-phenyl-ethoxy]-2-pyridyl]sulfonyl]-2-(2,2,4-trimethylpyrrolidin-1-yl)pyridine-3-carboxamide]
- EC30: < 3000 nM

Structure (SMILES): Cc1ccc2nc(N3C[C@@H](C)CC3(C)C)c(C(=O)NS(=O)(=O)c3ccc[nH]c3=O)cc2c1 [Compound 2471, 6-methyl-N-[(2-oxo-1H-pyridin-3-yl)sulfonyl]-2-[(4S)-2,2,4-trimethylpyrrolidin-1-yl]quinoline-3-carboxamide]
- EC30: 3000 to 10000 nM

Structure (SMILES): Cc1cc(-c2ccc(C(=O)NS(=O)(=O)N3CC[C@H](N)C3)c(N3C[C@@H](C)CC3(C)C)n2)ccc1F [Compound 2472, N-[(3S)-3-aminopyrrolidin-1-yl]sulfonyl-6-(4-fluoro-3-methyl-phenyl)-2-[(4S)-2,2,4-trimethylpyrrolidin-1-yl]pyridine-3-carboxamide]
- EC30: 3000 to 10000 nM
